Read-outs that look alike come from different tables or passages of the source.

As usually defined, the GI50 is the concentration that inhibits growth by half.

In test [1] the test system is Colo205 colon cancer cell line. Kind of test: MTT assay, 48 h continuous drug exposure, Colo205. In kind it is cell-based, human. Here is the method:
(§1) Some of the C8-linked diaryl ether-PBD hybrids have been tested against eleven human tumour cell lines derived from seven cancer types (lung cancer, colon cancer, cervix, ovarian cancer, oral cancer, prostate cancer and breast cancer) as per Tata protocol as shown in Table 2. For each compound, dose response curves for each cell line were measured at a minimum of five concentrations at 10 fold dilutions. A protocol of 48 h continuous drug exposure was used and a MTT assay was used to estimate cell viability or growth. The percent of cell growth (GI50) compared with the control was calculated. Some of the compounds have been evaluated for their in vitro cytotoxicity in eleven cell lines from seven human cancer types. The results are expressed as GI50 determined relative to that of untreated control cells (Table-2).
A general note: Formazan colour is commonly taken as a measure of viable cells.

Test [2] relates to A549 lung cancer cell line. In words: MTT assay, 48 h continuous drug exposure, A549. Format: cell-based, human. As for the experimental part:
as §1

Test [3] deals with duplex-form calf thymus DNA (CT-DNA). In words: Thermal denaturation studies with calf thymus DNA (DNA binding affinity). The following applies: [PBD]:[DNA] molar ratio 1:5, CT-DNA 100 μM, ligand 20 μM, sodium phosphate buffer pH 7.00; for (ΔTm ° C.) after incubation at 37° C. for 0 h: 0 h at 37° C.; for (ΔTm ° C.) after incubation at 37° C. for 18 h: 18 h at 37° C. As for the experimental part: DNA Binding Affinity of Diaryl Ether Linked PBD Hybrids: Compounds have been subjected to thermal denaturation studies with duplex-form calf thymus DNA (CT-DNA) using a modification of a reported procedure (Newman, M. S. Carcinog-compr. Surv. 1976, 1, 203; ([…].; Loy, M.; Hoffman, Carcinog-compr. […] The DNA-PBD solutions have been incubated at 37° C. for 0 and 18 h prior to analysis. […] DNA helix→coil transition temperatures (Tm) have been obtained from the maxima in the d(A260)/dT derivative plots. […] The DNA binding activity for these novel C8-linked diaryl ether PBD hybrids has been examined by thermal denaturation studies using calf thymus (CT) DNA. […] The data for the compounds are included in Table 1 for comparison.

Test [4] concerns MCF7 breast cancer cell line. Kind of test: MTT assay, 48 h continuous drug exposure, MCF7. Format: cell-based, human. As for the experimental part:
as §1

Test [5] has as its system PC3 prostrate cancer cell line. Kind of test: MTT assay, 48 h continuous drug exposure, PC3. Format: cell-based, human. The note with it: prostrate cancer cell line, 48 h exposure, MTT, read-out: GI50 PC3. Here is the method:
(§2) For each compound, dose response curves for each cell line were measured at a minimum of five concentrations at 10 fold dilutions. A protocol of 48 h continuous drug exposure was used and a MTT assay was used to estimate cell viability or growth. The percent of cell growth (GI50) compared with the control was calculated.

The test system of test [6] is A2780 ovarian cancer cell line. In words: MTT assay, 48 h continuous drug exposure, A2780. In kind it is cell-based, human. The note with it: ovarian cancer cell line, 48 h exposure, MTT, read-out: GI50 A2780. Here is the method: as §2
The test system of test [7] is Gurav oral cancer cell line. In words: MTT assay, 48 h continuous drug exposure, Gurav. In kind it is cell-based, human. The note with it: oral cancer cell line, 48 h exposure, MTT, read-out: GI50 Gurav. Here is the method: as §2
Test [8] relates to ZR-751 breast cancer cell line. Kind of test: MTT assay, 48 h continuous drug exposure, ZR-751. Format: cell-based, human. The note with it: breast cancer cell line, 48 h exposure, MTT, read-out: GI50 ZR-751. Here is the method:
as §2

For test [9], the system named is SiHa Cervix cancer cell line. In words: MTT assay, 48 h continuous drug exposure, SiHa. Format: cell-based, human. The note with it: Cervix cancer cell line, 48 h exposure, MTT, read-out: GI50 SiHa. Here is the method:
as §2

For test [10], the system named is DWD oral cancer cell line. In words: MTT assay, 48 h continuous drug exposure, DWD. Format: cell-based, human. The note with it: oral cancer cell line, 48 h exposure, MTT, read-out: GI50 DWD. As for the experimental part: as §2
The subject of test [11] is Hop62 lung cancer cell line. Kind of test: MTT assay, 48 h continuous drug exposure, Hop62. Format: cell-based, human. The following applies: lung cancer cell line, 48 h exposure, MTT, read-out: GI50 Hop62. Here is the method: as §2
[12] abbreviates: Homo sapiens, COLO 205, 48 h exposure.
The mark [13] stands for this setting: Homo sapiens, A549, 48 h exposure.
Setting [14] is: Homo sapiens, MCF7, 48 h exposure.

In the case of `COc1ccc(Oc2ccc(O)cc2N)cc1OC` [5b, 3-amino-4-(3,4-dimethoxyphenoxy)phenol, reference compound], the GI50 in [1] (setting [12]), in [2] (setting [13]) and in test [4] (setting [14]) was more than 50000 nM each time. Besides, the “(ΔTm ° C.) after incubation at 37° C. for 0 h” value in test [3] was found to be 0.1 °C. Further, the “(ΔTm ° C.) after incubation at 37° C. for 18 h” value in [3] worked out at 0.2 °C.
For the compound `COc1ccc(Oc2ccc(C(=O)N3CCNCC3)cc2N)cc1OC` [7b, [3-amino-4-(3,4-dimethoxyphenoxy)phenyl](piperazino)methanone, reference compound], the GI50 in test [1] (setting [12]), in [2] (setting [13]) and in test [4] (setting [14]) was more than 50000 nM in each case. Also, the “(ΔTm ° C.) after incubation at 37° C. for 0 h” value in test [3] worked out at 0.2 °C. For the same compound, the “(ΔTm ° C.) after incubation at 37° C. for 18 h” value in test [3] was found to be 0.5 °C.
`COc1ccc(Oc2cc(OCCCCCOc3cc4c(cc3OC)C(=O)N3CCC[C@H]3C=N4)ccc2N)cc1` [10g, 7-Methoxy-(8-5-[4-amino-3-(4-methoxyphenoxy)phenoxy]pentyloxy)-(11aS)-1,2,3,11a-tetrahydro-5H-pyrrolo[2,1-c][1,4]benzodiazepin-5-one]: the GI50 in test [5] worked out at 2840 nM; in test [1] (48 h exposure), 1500 nM; in test [6] it was 2300 nM; in test [7], 2430 nM; in test [2] (48 h exposure), 2840 nM; in [8] it was 3100 nM. Moreover, the GI50 came to 1560 nM in test [9], 2300 nM in [4] (48 h exposure), 2400 nM in [10] and 2100 nM in [11]. In addition, the “(ΔTm ° C.) after incubation at 37° C. for 0 h” value in [3] was found to be 2.9 °C. For the same compound, the “(ΔTm ° C.) after incubation at 37° C. for 18 h” value in test [3] turned out to be 3.6 °C.
On to `COc1ccc(Oc2cc(OCCCCCOc3cc4c(cc3OC)C(=O)N3CCC[C@H]3C=N4)ccc2N)cc1OC` [11g, 7-Methoxy-(8-5-[4-amino-3-(3,4-dimethoxyphenoxy)phenoxy]pentyloxy)-(11aS)-1,2,3,11a-tetrahydro-5H-pyrrolo[2,1-c][1,4]benzodiazepin-5-one], for which the GI50 in test [5] was 2250 nM; in [1] (48 h exposure) it was 170 nM; in test [6], 170 nM; in test [7], 160 nM; in test [2] (48 h exposure), 2010 nM; in test [8], 2500 nM. For the same compound, the GI50 is 1990 nM in test [9], 160 nM in [4] (48 h exposure), 180 nM in [10] and 2430 nM in [11]. In test [3], the “(ΔTm ° C.) after incubation at 37° C. for 0 h” value worked out at 4.1 °C. Moreover, the “(ΔTm ° C.) after incubation at 37° C. for 18 h” value in test [3] came to 5.5 °C.
`COc1cc2c(cc1OCCCCCOc1ccc(N)c(Oc3cc(OC)c(OC)c(OC)c3)c1)N=C[C@@H]1CCCN1C2=O` [12g, 7-Methoxy-(8-5-[4-amino-3-(3,4,5-trimethoxyphenoxy)phenoxy]pentyloxy)-(11aS)-1,2,3,11a-tetrahydro-5H-pyrrolo[2,1-c][1,4]benzodiazepin-5-one]: the GI50 amounted to 2190 nM in test [5]; 160 nM in [1] (48 h exposure); 170 nM in test [6]; 170 nM in [7]; 190 nM in test [2] (48 h exposure); 2100 nM in [8]. Also, the 50% growth inhibitory concentration (GI50) stood at 2860 nM in [9], 160 nM in test [4] (48 h exposure), 170 nM in test [10] and 2860 nM in test [11]. Besides, in [3], the “(ΔTm ° C.) after incubation at 37° C. for 0 h” value amounted to 4.2 °C. Moreover, in [3], the “(ΔTm ° C.) after incubation at 37° C. for 18 h” value was 5.1 °C.
`COc1ccc(Oc2ccc(OCCCCCOc3cc4c(cc3OC)C(=O)N3CCC[C@H]3C=N4)cc2I)cc1` [16c]: the GI50 turned out to be 2120 nM in test [5]; 2220 nM in test [1] (48 h exposure); 2300 nM in test [6]; 2230 nM in test [7]; 2700 nM in test [2] (48 h exposure); 3300 nM in test [8]. In addition, the GI50 was determined as 1420 nM in test [9], 2100 nM in test [4] (48 h exposure), 2600 nM in test [10] and 1500 nM in test [11]. Moreover, the “(ΔTm ° C.) after incubation at 37° C. for 0 h” value in test [3] amounted to 3.6 °C. Besides, the “(ΔTm ° C.) after incubation at 37° C. for 18 h” value in [3] is 4.6 °C.
For the compound `COc1ccc(Oc2ccc(OCCCCCOc3cc4c(cc3OC)C(=O)N3CCC[C@H]3C=N4)cc2I)cc1OC` [17c], the GI50 in test [5] was determined as 2560 nM; in test [1] (48 h exposure) it was 2260 nM; in [6], 2800 nM; in [7], 2270 nM; in test [2] (48 h exposure), 2450 nM; in [8] it was 3800 nM. In addition, the GI50 in test [9] is 2350 nM; in [4] (48 h exposure), 2600 nM; in test [10], 2700 nM; in test [11] it was 1120 nM. For the same compound, in [3], the “(ΔTm ° C.) after incubation at 37° C. for 0 h” value was determined as 3.9 °C. Moreover, the “(ΔTm ° C.) after incubation at 37° C. for 18 h” value in test [3] was 4.8 °C.
Regarding `COc1ccc(Oc2cc(OCCCCCOc3cc4c(cc3OC)C(=O)N3CCC[C@H]3C=N4)ccc2I)cc1OC` [17g, 7-Methoxy-(8-5-[4-iodo-3-(3,4-dimethoxyphenoxy)phenoxy]pentyloxy)-(11aS)-1,2,3,11a-tetrahydro-5H-pyrrolo[2,1-c][1,4]benzodiazepin-5-one], the GI50 was found to be 170 nM in test [5]; 2200 nM in test [1] (48 h exposure); 180 nM in [6]; 190 nM in test [7]; 1650 nM in [2] (48 h exposure); 1950 nM in [8]. Moreover, the GI50 in test [9] was 190 nM; in [4] (48 h exposure) it was less than 100 nM; in test [10], 180 nM; in [11] it was 2250 nM. In test [3], the “(ΔTm ° C.) after incubation at 37° C. for 0 h” value was found to be 4.3 °C. Also, in test [3], the “(ΔTm ° C.) after incubation at 37° C. for 18 h” value was found to be 5.1 °C.
As for `COc1cc2c(cc1OCCCCCOc1ccc(Oc3cc(OC)c(OC)c(OC)c3)c(I)c1)N=C[C@@H]1CCCN1C2=O` [18c], the GI50 in [5] stood at 2570 nM; in [1] (48 h exposure), 3120 nM; in [6] it was 3100 nM; in [7], 2680 nM; in [2] (48 h exposure), 3040 nM; in [8], 2780 nM. Moreover, the concentration for 50% growth inhibition (GI50) turned out to be 2220 nM in test [9], 3600 nM in test [4] (48 h exposure), 3000 nM in test [10] and 2010 nM in test [11]. Further, in [3], the “(ΔTm ° C.) after incubation at 37° C. for 0 h” value amounted to 4.6 °C. The “(ΔTm ° C.) after incubation at 37° C. for 18 h” value in test [3] was 5.5 °C.
Take `COc1ccc(Oc2cccc(OCCCCCOc3cc4c(cc3OC)C(=O)N3CCC[C@H]3C=N4)c2[N+](=O)[O-])cc1` [19g, 7-Methoxy-(8-3-[3-(4-methoxyphenoxy)-2-nitrophenoxy]pentyloxy)-(11aS)-1,2,3,11a-tetrahydro-5H-pyrrolo[2,1-c][1,4]benzodiazepin-5-one]: the GI50 amounted to 2840 nM in test [5]; 170 nM in test [1] (48 h exposure); 2300 nM in test [6]; 2260 nM in test [7]; 2220 nM in test [2] (48 h exposure); 2500 nM in test [8]. Besides, the GI50 in [9] is 1620 nM; in test [4] (48 h exposure), 2000 nM; in [10] it was 2300 nM; in test [11] it was 2500 nM. Further, in test [3], the “(ΔTm ° C.) after incubation at 37° C. for 0 h” value is 4.9 °C. Further, the “(ΔTm ° C.) after incubation at 37° C. for 18 h” value in test [3] is 5.8 °C.
Turning to `COc1cccc2c1C(=O)c1c(O)c3c(c(O)c1C2=O)C[C@@](O)(C(=O)CO)C[C@@H]3O[C@H]1C[C@H](N)[C@H](O)[C@H](C)O1` [ADR, adriamycin, reference compound], the GI50 in test [5] (Homo sapiens) is 160 nM; in test [1] (setting [12]), less than 100 nM; in [6] (Homo sapiens, A2780) it was less than 100 nM; in test [7] (Homo sapiens, Gurav), less than 100 nM; in test [2] (setting [13]) it was less than 100 nM; in [8] (Homo sapiens, ZR-75-1), 110 nM. Also, the GI50 in test [9] (Homo sapiens, SiHa) is 160 nM; in [4] (setting [14]), 130 nM; in test [10] (Homo sapiens), 120 nM; in test [11] (Homo sapiens, HOP-62) it was 150 nM.
